For this assay, the target named is IDO1 (Homo sapiens, UniProt P14902). The assay is described as follows: IDO1 Cellular Assay in HeLa Cells Stimulated with IFNγ. The assay is classed as cell-based. The following applies: IFNγ 100 ng/mL, 300 uM L-tryptophan, about 48 hours, fluorescence readout, read-out: IDO1 HELA Cell Assay, IC50. As to the method: Biological Assays IDO1 Cellular Assay in HeLa Cells Stimulated with IFNγ
Chain of IDO1 (P14902 whole entry): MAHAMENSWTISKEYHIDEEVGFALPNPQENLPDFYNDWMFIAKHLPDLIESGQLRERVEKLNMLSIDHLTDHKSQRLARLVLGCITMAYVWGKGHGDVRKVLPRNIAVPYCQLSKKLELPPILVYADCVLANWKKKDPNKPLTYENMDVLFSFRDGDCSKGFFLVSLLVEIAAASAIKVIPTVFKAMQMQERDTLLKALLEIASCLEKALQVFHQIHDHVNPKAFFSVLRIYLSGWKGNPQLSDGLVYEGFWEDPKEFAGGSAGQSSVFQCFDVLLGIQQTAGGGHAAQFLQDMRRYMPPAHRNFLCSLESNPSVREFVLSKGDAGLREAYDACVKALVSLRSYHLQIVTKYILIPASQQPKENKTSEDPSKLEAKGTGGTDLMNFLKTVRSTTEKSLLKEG
HeLa cells were cultured in complete HeLa culture medium (90% EMEM, 10% heat-inactivated fetal bovine serum) and expanded to about 1×10^9 cells. The cells were then collected and frozen down at 1×10^7 cells/vial in 1 mL frozen medium (90% complete HeLa culture medium, 10% DMSO).
Compounds to be tested were serially diluted in ten 3-fold steps in DMSO starting from 10 mM DMSO stocks in Echo low volume plate(s). Compound dilutions or DMSO alone were then dispensed from the dilution plate(s) into Greiner black 384-well assay plate(s) (catalog #781086, 50 nL/well) using an Echo 550 acoustic liquid handler (Labcyte).
Frozen HeLa cells were thawed and transferred into HeLa assay medium (99% complete HeLa culture medium, 1% Pen/Strep) with 20 mL medium/vial of cells. The cells were spun down at 250 g in a table top centrifuge for 5 min and suspended in same volume of HeLa assay medium. The cells were then counted and adjusted to a density of 2×10^5 cells/mL in HeLa assay medium. Sterile L-tryptophan were added to the cells with final concentration of 300 uM L-tryptophan. A small aliquot (2 mL/plate) of HeLa cells were set aside and were not treated with IFNγ, to serve as the Max-E control.
HeLa cells with and without IFNγ were dispensed to the respective wells of 384-well assay plates containing the compounds. The plates were incubated for about 48 hours at a 37° C., 5% CO2 incubator. Afterwards, 12 μL of 0.5 M methyl isonipecotate in dimethyl sulfoxide were added into each well and the plates were sealed and incubated at 37° C. without CO2 overnight. The plates were centrifuged for 1 min at 200×g. The resulting fluorescence was measured in a Spectramax plate reader (Molecular Devices) with a 400 nm excitation filter and a 510 nm emission filter.
The fluorescence intensity of each well was corrected for the background observed in wells with non-IFNγ-treated cells and was expressed as a fraction of the intensity observed in wells of IFNγ-treated cells and DMSO only. Potencies were calculated by linear least squares fit to the four parameter logistic IC50 equation.
Compounds disclosed herein generally have IC50 of about 0.1 nM to about 20,000 nM, or more specifically, about 1 nM to about 10,000 nM, or more specifically, about 5 nM to about 5,000 nM, or more specifically, about 10 nM to about 1,000 nM, or still more specifically, about 10 nM to about 500 nM.
Take `Cc1cc(C(F)(F)F)ccc1C1CCN(C(=O)Cn2nc(C(=O)N3C[C@@H](C)O[C@@H](C)C3)c3c2CCC3)CC1` [Example 162, 2-{3-[(2R,6S)-2,6-dimethylmorpholine-4-carbonyl]-5,6-dihydrocyclopenta[c]pyrazol-1(4H)-yl}-1-{4-[2-methyl-4-(trifluoromethyl)phenyl]piperidin-1-yl}ethan-1-one]: the IC50 stood at 173 nM.
Regarding `Cc1cccc(C2CCN(C(=O)Cn3nc(C(=O)N4CCN(C(=O)CO)CC4)c4c3C[C@@H]3C[C@H]43)CC2)c1C` [Example 28, 1-[4-(2,3-dimethylphenyl)piperidin-1-yl]-2-{(3bS,4aS)-3-[4-(hydroxyacetyl)piperazine-1-carbonyl]-3b,4,4a,5-tetrahydro-1H-cyclopropa[3,4]cyclopenta[1,2-c]pyrazol-1-yl}ethan-1-one], the IC50 was 41.2 nM.
For the compound `Cc1cc(C2CCN(C(=O)Cn3nc(C(=O)N4C[C@@H](C)O[C@@H](C)C4)c4c3CCC4)CC2)cc(C)c1F` [Example 139, 2-{3-[(2R,6S)-2,6-dimethylmorpholine-4-carbonyl]-5,6-dihydrocyclopenta[c]pyrazol-1(4H)-yl}-1-[4-(4-fluoro-3,5-dimethylphenyl)piperidin-1-yl] ethan-1-one], the IC50 was 88.3 nM.
Consider `C[C@@H]1CN(C(=O)c2nn(CC(=O)N3CCC(c4cccc(C(C)(F)F)c4)CC3)c3c2CCC3)C[C@H](C)O1` [Example 159, 1-{4-[3-(1,1-difluoroethyl)phenyl]piperidin-1-yl}-2-{3-[(2R,6S)-2,6-dimethylmorpholine-4-carbonyl]-5,6-dihydrocyclopenta[c]pyrazol-1(4H)-yl}ethan-1-one], for which the IC50 came out at 156 nM.
Next, `Cc1cccc(C2CCN(C(=O)Cn3nc(C(=O)N4CC[C@](C)(O)C4)c4c3CCC4)CC2)c1C` [Example 49, (S)-1-(4-(2,3-dimethylphenyl)piperidin-1-yl)-2-(3-(3-hydroxy-3-methylpyrrolidine-1-carbonyl)-5,6-dihydrocyclopenta[c]pyrazol-1(4H)-yl)ethan-1-one]: 29.8 nM; `C[C@@H]1CN(C(=O)c2nn(CC(=O)N3CCC(c4cc(F)c(Cl)c(F)c4)CC3)c3c2CCC3)C[C@H](C)O1` [Example 101, 1-[4-(4-chloro-3,5-difluorophenyl)piperidin-1-yl]-2-{3-[(2R,6S)-2,6-dimethylmorpholine-4-carbonyl]-5,6-dihydrocyclopenta[c]pyrazol-1(4H)-yl}ethan-1-one]: 27.9 nM; `C[C@@H]1CN(C(=O)c2nn(CC(=O)N3CCC(c4cc(F)cc(F)c4F)CC3)c3c2CCC3)C[C@H](C)O1` [Example 117, 2-{3-[(2R,6S)-2,6-dimethylmorpholine-4-carbonyl]-5,6-dihydrocyclopenta[c]pyrazol-1(4H)-yl}-1-[4-(2,3,5-trifluorophenyl)piperidin-1-yl]ethan-1-one]: 48.9 nM.
For `C[C@@H]1CN(C(=O)c2nn(CC(=O)N3CCC(c4cc(F)cc(Cl)c4)CC3)c3c2CCC3)C[C@H](C)O1` [Example 99, 1-[4-(3-chloro-5-fluorophenyl)piperidin-1-yl]-2-{3-[(2R,6S)-2,6-dimethylmorpholine-4-carbonyl]-5,6-dihydrocyclopenta[c]pyrazol-1(4H)-yl}ethan-1-one], the IC50 is 27.4 nM.
For `C[C@@H]1CN(C(=O)c2nn(CC(=O)N3CCC(c4cccc5c(F)cccc45)CC3)c3c2CCC3)C[C@H](C)O1` [Example 85, 2-{3-[(2R,6S)-2,6-dimethylmorpholine-4-carbonyl]-5,6-dihydrocyclopenta[c]pyrazol-1(4H)-yl}-1-[4-(5-fluoronaphthalen-1-yl)piperidin-1-yl]ethan-1-one], the IC50 turned out to be 5.3 nM.
On to `C[C@@H]1CN(C(=O)c2nn(CC(=O)N3CCC(c4cccc(C5CC5)c4)CC3)c3c2CCC3)C[C@H](C)O1` [Example 103, 1-[4-(3-cyclopropylphenyl)piperidin-1-yl]-2-{3-[(2R,6S)-2,6-dimethylmorpholine-4-carbonyl]-5,6-dihydrocyclopenta[c]pyrazol-1(4H)-yl}ethan-1-one], for which the half-inhibitory concentration (IC50) worked out at 29.6 nM.
As for `C[C@@H]1CN(C(=O)c2nn(CC(=O)N3CCC(c4cccc5ccccc45)CC3)c3c2CCC3)C[C@H](C)O1` [Example 69, 2-{3-[(2R,6S)-2,6-dimethylmorpholine-4-carbonyl]-5,6-dihydrocyclopenta[c]pyrazol-1(4H)-yl}-1-[4-(naphthalen-1-yl)piperidin-1-yl]ethan-1-one], the IC50 was found to be 6.4 nM.
Turning to `C[C@@H]1CN(C(=O)c2nn(CC(=O)N3CCC(c4ccc(C(F)F)cc4F)CC3)c3c2CCC3)C[C@H](C)O1` [Example 142, 1-{4-[4-(difluoromethyl)-2-fluorophenyl]piperidin-1-yl}-2-{3-[(2R,6S)-2,6-dimethylmorpholine-4-carbonyl]-5,6-dihydrocyclopenta[c]pyrazol-1(4H)-yl}ethan-1-one], the IC50 was determined as 99.5 nM.
On to `C[C@@H]1CN(C(=O)c2nn(CC(=O)N3CCC(F)(c4ccccc4)CC3)c3c2CCC3)C[C@H](C)O1` [Example 63, 2-[3-[(2R,6S)-2,6-dimethylmorpholine-4-carbonyl]-5,6-dihydro-4H-cyclopenta[c]pyrazol-1-yl]-1-(4-fluoro-4-phenyl-1-piperidyl)ethanone], for which the IC50 turned out to be 296 nM.
For the compound `Cc1ccc(C2CCN(C(=O)Cn3nc(C(=O)N4C[C@@H](C)O[C@@H](C)C4)c4c3CCC4)CC2)cc1` [Example 127, 2-{3-[(2R,6S)-2,6-dimethylmorpholine-4-carbonyl]-5,6-dihydrocyclopenta[c]pyrazol-1(4H)-yl}-1-[4-(4-methylphenyl)piperidin-1-yl]ethan-1-one], the IC50 stood at 61.1 nM.
For `Cc1cc(C2CCN(C(=O)Cn3nc(C(=O)N4C[C@@H](C)O[C@@H](C)C4)c4c3CCC4)CC2)ccc1F` [Example 94, 2-{3-[(2R,6S)-2,6-dimethylmorpholine-4-carbonyl]-5,6-dihydrocyclopenta[c]pyrazol-1(4H)-yl}-1-[4-(4-fluoro-3-methylphenyl)piperidin-1-yl]ethan-1-one], the IC50 came out at 18.9 nM.
On to `Cc1c(C2CCN(C(=O)Cn3nc(C(=O)N4CCO[C@H](CO)C4)c4c3C[C@H]3C[C@@H]43)CC2)cccc1C(F)(F)F` [Example 4, 2-((3bR,4aR)-3-((S)-2-(hydroxymethyl)morpholine-4-carbonyl)-3b,4,4a,5-tetrahydro-1H-cyclopropa[3,4]cyclopenta[1,2-c]pyrazol-1-yl)-1-(4-(2-methyl-3-(trifluoromethyl)phenyl)piperidin-1-yl)ethanone], for which the IC50 was 3 nM.
For the compound `C[C@@H]1CN(C(=O)c2nn(CC(=O)N3CCC(c4cc(F)c(F)c(F)c4)CC3)c3c2CCC3)C[C@H](C)O1` [Example 126, 2-{3-[(2R,6S)-2,6-dimethylmorpholine-4-carbonyl]-5,6-dihydrocyclopenta[c]pyrazol-1(4H)-yl}-1-[4-(3,4,5-trifluorophenyl)piperidin-1-yl]ethan-1-one], the IC50 was determined as 59 nM.
With `CCc1cccc(C2CCN(C(=O)Cn3nc(C(=O)N4C[C@@H](C)O[C@@H](C)C4)c4c3CCC4)CC2)c1` [Example 96, 2-{3-[(2R,6S)-2,6-dimethylmorpholine-4-carbonyl]-5,6-dihydrocyclopenta[c]pyrazol-1(4H)-yl}-1-[4-(3-ethylphenyl)piperidin-1-yl]ethan-1-one], the IC50 was found to be 21.5 nM.
Under `C[C@@H]1CN(C(=O)c2nn(CC(=O)N3CCC(c4ccc(F)c(F)c4)CC3)c3c2CCC3)C[C@H](C)O1` [Example 144, 1-[4-(3,4-difluorophenyl)piperidin-1-yl]-2-{3-[(2R,6S)-2,6-dimethylmorpholine-4-carbonyl]-5,6-dihydrocyclopenta[c]pyrazol-1(4H)-yl}ethan-1-one] stands 104 nM; under `Cc1ccc(C2CCN(C(=O)Cn3nc(C(=O)N4C[C@@H](C)O[C@@H](C)C4)c4c3CCC4)CC2)c(C)c1` [Example 105, 2-{3-[(2R,6S)-2,6-dimethylmorpholine-4-carbonyl]-5,6-dihydrocyclopenta[c]pyrazol-1(4H)-yl}-1-[4-(2,4-dimethylphenyl)piperidin-1-yl]ethan-1-one], 30.3 nM.
For `COc1c(F)cc(C2CCN(C(=O)Cn3nc(C(=O)N4C[C@@H](C)O[C@@H](C)C4)c4c3CCC4)CC2)cc1Cl` [Example 95, 1-[4-(3-chloro-5-fluoro-4-methoxyphenyl)piperidin-1-yl]-2-{3-[(2R,6S)-2,6-dimethylmorpholine-4-carbonyl]-5,6-dihydrocyclopenta[c]pyrazol-1(4H)-yl}ethan-1-one], the IC50 turned out to be 19.3 nM.

Values taken from US12091405B2, “Substituted pyrazole compounds as indoleamine 2,3-dioxygenase inhibitors” (Merck Sharp & Dohme LLC, priority 2018, dated 2024).
